Assay: Particle size distribution by laser diffraction (Malvern Mastersizer)
Type: physicochemical
Settings: drug material used in Inhaler Type A for cascade impaction
Procedure: The data for four samples of fluticasone propionate of the present invention, produced using the method and apparatus described herein, are presented in Table 2 below. The particle size was determined by laser diffraction (Malvern Mastersizer).
The particle size was determined by laser diffraction (Malvern Mastersizer).

Substance	Mean particle size [microns]
fluticasone propionate [Conventionally crystallised fluticasone propionate (micronis] [reference compound]	1.8
fluticasone propionate [Sample 19]	4.8

Same assay, conditions: laser diffraction (Malvern Mastersizer)

Substance	% <5 μm [%]	% <10 μm [%]	Mean particle size	Uniformity Index
fluticasone propionate [Sample 8]	23	53	9.4 μm	11
fluticasone propionate [Sample 3]	6	13	31.0 μm	12
fluticasone propionate [Sample 6]	24	51	9.7 μm	10
fluticasone propionate [Sample 4]	68	83	2.8 μm	4
fluticasone propionate [Sample 9]	23	52	9.6 μm	12
fluticasone propionate [Sample 2]	20	48	10.4 μm	13
fluticasone propionate [Sample 1]	48	81	5.2 μm	12
fluticasone propionate [Conventionally crystallised fluticasone propionate (micronis] [reference compound]	>90	>95	1-3 μm	15

Assay: Particle shape by scanning electron microscopy
Type: physicochemical
Settings: not given
Procedure: The particle shape was determined by scanning electron microscopy. Data for three samples of fluticasone propionate of the present invention, produced using the method and apparatus described herein, are presented in FIGS. 5 to 7.

Substance	Particle shape
fluticasone propionate [Sample 6]	flake-like
fluticasone propionate [Sample 7]	equant
fluticasone propionate [Sample 5]	acicular

Assay: Stability of Form 2 to conversion to Form 1 by XRPD
Type: physicochemical
Settings: after 62 weeks at ambient temperature and humidity
Procedure: X-ray powder diffraction (XRPD) patterns were generated using either a Siemens D 5000 or Philips X'pert MPD. The powders were scanned over a 2θ angle range of either 1.5° to 60°, or 0° to 35°, with a 0.02-0.050 step at 3-15 seconds count time using CuKα radiation. The Siemens D5000 measures intensity as counts per second and the Philips X'pert MPD measures intensity as counts.

Substance	Conversion of Form 2 to Form 1
fluticasone propionate [Form 2 fluticasone propionate prepared as described herein]	no conversion was seen

Assay: Water content of crystalline forms
Type: physicochemical
Settings: not given
Description: The water content of the two crystalline forms of fluticasone propionate produced with the apparatus described herein has also been determined, and compared with that of conventionally crystallised and micronised fluticasone propionate.

Substance	Water content [% w/w]
fluticasone propionate [Form 1 fluticasone propionate prepared as described herein]	<0.1
fluticasone propionate [Conventionally crystallised fluticasone propionate (micronis] [reference compound]	<0.1
fluticasone propionate [Form 2 fluticasone propionate prepared as described herein]	>0.3

Assay: Dynamic bulk density (fluidisability)
Type: physicochemical
Settings: not given
Procedure: The dynamic bulk density (W) is indicative of a substance's fluidisability and is defined as: [formula]
where P is the packed bulk density (g cm^−3), A is the aerated bulk density (g cm^−3) and C is the compressibility (%) where C is calculated by the equation: [formula]
Clearly, a low figure for W corresponds to a high degree of fluidisability.
The dynamic bulk density for conventionally crystallised fluticasone propionate (micronised and non-micronised) and fluticasone propionate of the present invention are shown in Table 7.

Substance	Dynamic Bulk Density (W) [g cm^−3]
fluticasone propionate [Sample 3]	0.17
fluticasone propionate [Conventionally crystallised fluticasone propionate (non-micr] [reference compound]	0.21
fluticasone propionate [Conventionally crystallised fluticasone propionate (micronis] [reference compound]	0.21
fluticasone propionate [Sample 12]	0.05
fluticasone propionate [Sample 13]	0.06

Assay: Static charge test (drug retained on vial walls after rolling)
Type: physicochemical
Settings: after rolling drug in the vial for 2 minutes
Procedure: A simple test was devised to ascertain a relative static charge based on the quantity of drug remaining coated to the walls of a vial after rolling a predetermined quantity of drug in the vial for 2 minutes. The greater the amount of the drug remaining on the vial, the higher the relative static charge associated with the drug substance.

Substance	% Drug retained on vial [%]
fluticasone propionate [Sample 16]	7.6
fluticasone propionate [Sample 15]	4.2
fluticasone propionate [Sample 17]	8.6
fluticasone propionate [Conventionally crystallised fluticasone propionate (micronis] [reference compound]	4.5
fluticasone propionate [Sample 14]	3.8

Assay: Solvent content test by NMR
Type: physicochemical
Settings: not given
Procedure: The solvent content of fluticasone propionate of the present invention was investigated by Nuclear Magnetic Resonance (NMR) and compared to that of conventional crystallised fluticasone propionate. Each sample was tested for acetone content. (The conventionally crystallised fluticasone propionate was crystallised from acetone.) In addition, sample 5 was crystallised from methanol and therefore tested for methanol.

Substance	Acetone Content	Methanol Content
fluticasone propionate [Sample 8]	Not Detected	–
fluticasone propionate [Sample 15]	Not Detected	–
fluticasone propionate [Sample 5]	Not Detected	Not Detected
fluticasone propionate [Conventionally crystallised fluticasone propionate (micronis] [reference compound]	typically 0.7 % w/w	–

Source: US6406718B1, “Orthorhombic crystalline form of fluticasone propionate and pharmaceutical compositions thereof” (SmithKline Beecham Corporation, priority 1996, dated 2002)
